How the values were obtained:
Format in all cases: cell-based, male wister rats
fat cells [1] = test: Decomposition by adrenalin of the fat in the fat cells; conditions: adrenalin 1 μg/ml + saponin 20 μg/ml, 37° C., two hours; for inhibition at 20 µg/mL: Rattus norvegicus, 2 h, read-out: Rate of inhibition
Procedure: A small section was prepared from 4 g of the fat tissue, and placed in 10 ml. of Krebs-Ringer bicarbonate buffer containing 0.4 g of albumin, 10 mg of collagenase and 5 mg of glucose, and having a pH value of 7.4. […] Added into the fat cell were 10 ml. of the aforesaid buffer (pH 7.4), and the solution was carefully stirred to wash the fat cell, followed by centrifugal separation at 300 rpm for 30 seconds. This procedure was repeated twice, whereby the fat cells were washed perfectly, and these fat cells were used for the tests.
The fat cells obtained by treating with collagenase were suspended in Krebs-Ringer phosphate buffer (KRP) having a pH value of 7.4. Placed into a test tube were 0.3 ml. of the solution thus obtained, and containing 100 mg of fat cells, 0.1 ml. of an adrenalin solution containing 1 μg of adrenalin, 0.1 ml. of a saponin solution containing 20 μg of saponin, and 0.5 ml. of a 5% albumin solution in KRP, and having a pH value adjusted to 7.4. […] More specifically, 3 ml. of Dole's extract were placed in the reaction system, and after they were shaked for five minutes, 3 ml. of heptane were dispensed, and 1 ml. of a thymol blue solution was added thereinto. The resulting solution was titrated with a 0.008 N aqueous solution of sodium hydroxide, while it was being stirred with nitrogen, and the amount of the resulting free fatty acid was determined in accordance with a calibration curve.
The rate of inhibition was obtained in accordance with the equation shown at (1) above.

fat cells [2] = test: Synthesis of fat from glucose in fat cells; conditions: 20 μg/ml; for Power for synthesis of neutral fat from glucose: 37° C., half an hour; for activation at 20 µg/mL: Rattus norvegicus, 0.5 h, none = 100, read-out: Rate of promotion
Procedure: (§1) Fat tissues were separated from the epididymides of male wister rats weighing 150 to 180 g each, and fat cells were obtained therefrom in accordance with the Rodbell's method [M. Rodbell, J. Biol. Chem., 239, 375 (1964)]. A small section was prepared from 4 g of the fat tissue, and placed in 10 ml. of Krebs-Ringer bicarbonate buffer containing 0.4 g of albumin, 10 mg of collagenase and 5 mg of glucose, and having a pH value of 7.4. It was heated at 37° C. for 50 minutes, and subjected to centrifugal separation at 300 rpm, whereby a floating fat cell layer was separated. Added into the fat cell were 10 ml. of the aforesaid buffer (pH 7.4), and the solution was carefully stirred to wash the fat cell, followed by centrifugal separation at 300 rpm for 30 seconds. This procedure was repeated twice, whereby the fat cells were washed perfectly, and these fat cells were used for the tests.
^14 C-glucose having its carbon atoms marked with radioactivity was reacted upon fat cells, and a Geiger count was read to determine the amount of the glucose participating in the fat synthesis and incorporated into the fat cells as a neutral fat, whereby gynosaponins were tested for their effects on the power of the glucose for fat synthesis.
More specifically, the fat cells obtained by treating with collagenase were suspended in KRB, and 0.35 ml. of the resulting solution containing 100 mg of fat cells was placed into a test tube with 0.1 ml. of each saponin solution containing 20 μg of saponin, 0.5 ml. of a 5% albumin solution in KRB, containing 10 mM glucose and having a pH value of 7.4, and 0.05 ml. of a ^14 C-glucose solution which was a 0.5 μCi KRP solution having a pH value of 7.4 and containing 10 mM glucose. They were heated at 37° C. for half an hour, and after 5 ml. of Dole's extract were added and the whole was shaked for five minutes, 3 ml. of heptane and 2 ml. of water were added, and the whole was shaked for five minutes. 3 ml. of a heptane layer were separated, and after an alkaline ethanol solution (0.5 N sodium hydroxide solution, 50 % ethanol solution) was added in the amount of 3 ml., the whole was shaked for five minutes. Then, 1 ml. of an ethanol layer was separated, and 10 ml. of a toluene scintillation solution were added thereinto, followed by determination according to the method of Skipski et al. [Biochem. Biophys. Acta, 106, 386 (1965)].

fat cells [3] = test: Decomposition of the fat in the fat cell by ACTH; conditions: ACTH 1 μg/ml + saponin 20 μg/ml, 37° C., two hours; for inhibition at 20 µg/mL: Rattus norvegicus, 2 h, read-out: Rate of inhibition
Procedure: as §1
The fat cells obtained by treating with collagenase were suspended in Krebs-Ringer bicarbonate buffer (KRB) having a pH value of 7.4. Placed into a test tube were 0.3 ml. of the solution thus obtained (containing 100 mg of fat cells), 0.1 ml. of ACTH solution containing 1 μg of ACTH, 0.1 ml. of each saponin solution containing 500 μg of saponin, and 0.3 ml. of a 5% alubumin solution in KRB, and having a pH value adjusted to 7.4. They were heated at 37° C. for two hours, and the amount of the resulting free fatty acid was determined in accordance with the Dole's method [V. P. Dole, J. Biol. Chem., 35, 150 (1958)].
Namely, 3 ml. of Dole's extract were separated into the reaction system, and 1 ml. of a thymol blue solution was added thereinto. Nitrogen was blown into the resulting solution, and the solution was titrated with a 0.008 N aqueous solution of sodium hydroxide, while it was being stirred. The amount of the resulting free fatty acid was determined in accordance with a calibration curve.
The rate of inhibition against fat decomposition was obtained in accordance with the following equation: [formula] wherein A stands for the amount of the free fatty acid formed by addition of ACTH along in the amount of 1 μg/ml.; and B stands for the amount of the free fatty acid formed by addition of ACTH and saponin in the amount of 1 μg/ml. and 20 μg/ml., respectively.

Question: For `CC(C)=CCC[C@](C)(O[C@@H]1O[C@H](CO[C@@H]2OC[C@@H](O)[C@H](O)[C@H]2O)[C@@H](O)[C@H](O)[C@H]1O)[C@H]1CC[C@]2(C)[C@@H]1[C@H](O)C[C@@H]1[C@@]3(C)CC[C@H](O[C@@H]4O[C@H](CO)[C@@H](O)[C@H](O)[C@H]4O[C@@H]4OC[C@@H](O)[C@H](O)[C@H]4O)C(C)(C)[C@@H]3CC[C@]12C` [gynosaponin Q, 20S-Protopanaxadiol-3-O-[β-D-xylopyranosyl (1→2)-β-D-glucopyranoside]-20-O-[β-D-xylopyranosyl (1→6)-β-D-glucopyranoside]], which inhibition at 20 µg/mL (fat cells [1]) is on record?
Answer: The inhibition at 20 µg/mL was 4%.

Question: What about the “Free fatty acid formed by decomposition of fat” value (shortened to “Free fatty acid formed”) (fat cells [1]) of the same compound?
Answer: Its value is 13.5 μ Eq/g.

Question: And the “Power for synthesis of neutral fat from glucose” value (“Power for synthesis” for short) (fat cells [2])?
Answer: Its value is 11,620 cpm/g.

Question: What about the activation at 20 µg/mL (fat cells [2]) of the same compound?
Answer: The activation at 20 µg/mL was 54%.

Question: And the “Free fatty acid formed” value (fat cells [3])?
Answer: The value was 5.8 μ Eq/g.

Question: What about the inhibition at 20 µg/mL (fat cells [3]) of the same compound?
Answer: The inhibition at 20 µg/mL was 31%.

Question: Which inhibition at 20 µg/mL (fat cells [1]) does the source give for `CC(C)=CCC[C@](C)(O[C@@H]1O[C@H](CO[C@@H]2O[C@@H](C)[C@H](O)[C@@H](O)[C@H]2O)[C@@H](O)[C@H](O)[C@H]1O)[C@H]1CC[C@]2(C)[C@@H]1[C@H](O)C[C@@H]1[C@@]3(C)CC[C@H](O[C@@H]4O[C@H](CO)[C@@H](O)[C@H](O)[C@H]4O[C@@H]4OC[C@@H](O)[C@H](O)[C@H]4O)C(C)(C)[C@@H]3CC[C@]12C` [gynosaponin R, 20S-Protopanaxadiol-3-O-[β-D-xylopyranosyl (1→2)-β-D-glucopyranoside]-20-O-[α-L-rhamnopyranosyl (1→6)-β-D-glucopyranoside]] here?
Answer: Its inhibition at 20 µg/mL is 1%.

Question: And the “Free fatty acid formed” value (fat cells [1])?
Answer: Its value is 14.0 μ Eq/g.

Question: What about the “Power for synthesis” value (fat cells [2]) of the same compound?
Answer: Its value is 12,600 cpm/g.

Question: And the activation at 20 µg/mL (fat cells [2])?
Answer: Its activation at 20 µg/mL is 59%.

Question: And the “Free fatty acid formed” value (fat cells [3])?
Answer: The value was 6.2 μ Eq/g.

Question: And the inhibition at 20 µg/mL (fat cells [3])?
Answer: Its inhibition at 20 µg/mL is 26%.

Question: `CC(C)=CCC[C@](C)(O[C@@H]1O[C@H](CO[C@@H]2O[C@H](CO)[C@@H](O)[C@H](O)[C@H]2O)[C@@H](O)[C@H](O)[C@H]1O)[C@H]1CC[C@]2(C)[C@@H]1[C@H](O)C[C@@H]1[C@@]3(C)CC[C@H](O[C@@H]4O[C@H](CO)[C@@H](O)[C@H](O)[C@H]4O)C(C)(C)[C@@H]3CC[C@]12C` [gynosaponin S, 20S-Protopanaxadiol-3-O-β-D-glucopyranoside-20-O-[β-D-glucopyranosyl (1→6)-β-D-glucopyranoside]] was tested. Which inhibition at 20 µg/mL (fat cells [1]) did it give?
Answer: Its inhibition at 20 µg/mL is 4%.

Question: What about the “Free fatty acid formed” value (fat cells [1]) of the same compound?
Answer: The value was 13.5 μ Eq/g.

Question: What about the “Power for synthesis” value (fat cells [2]) of the same compound?
Answer: The value was 10,100 cpm/g.

Question: And the activation at 20 µg/mL (fat cells [2])?
Answer: The activation at 20 µg/mL was 47%.

Question: And the “Free fatty acid formed” value (fat cells [3])?
Answer: Its value is 5.4 μ Eq/g.

Question: What about the inhibition at 20 µg/mL (fat cells [3]) of the same compound?
Answer: The inhibition at 20 µg/mL was 36%.

Question: For `CC(=CCC[C@](C)(O[C@@H]1O[C@H](CO[C@@H]2OC[C@@H](O)[C@H](O)[C@H]2O)[C@@H](O)[C@H](O)[C@H]1O)[C@H]1CC[C@]2(C)[C@@H]1[C@H](O)C[C@@H]1[C@@]3(C)CC[C@H](O)C(C)(C)[C@@H]3CC[C@]12C)CO` [gynosaponin U, 20S,26-Hydroxyprotopanaxadiol-20-O-[β-D-xylopyranosyl (1→6)-β-D-glucopyranoside]], which inhibition at 20 µg/mL (fat cells [1]) is on record?
Answer: The inhibition at 20 µg/mL was 2%.

Question: And the “Free fatty acid formed” value (fat cells [1])?
Answer: Its value is 13.8 μ Eq/g.

Question: And the “Power for synthesis” value (fat cells [2])?
Answer: The value was 13,100 cpm/g.

Question: What about the activation at 20 µg/mL (fat cells [2]) of the same compound?
Answer: The activation at 20 µg/mL was 61%.

Question: What about the “Free fatty acid formed” value (fat cells [3]) of the same compound?
Answer: Its value is 5.6 μ Eq/g.

Question: And the inhibition at 20 µg/mL (fat cells [3])?
Answer: Its inhibition at 20 µg/mL is 33%.

Question: How did the inhibition at 20 µg/mL (fat cells [1]) turn out when `CC(C)=CCC[C@](C)(O[C@@H]1O[C@H](CO[C@@H]2O[C@H](CO)[C@@H](O)[C@H](O)[C@H]2O)[C@@H](O)[C@H](O)[C@H]1O)[C@H]1CC[C@]2(C)[C@@H]1[C@H](O)C[C@@H]1[C@@]3(C)CC[C@H](O[C@@H]4O[C@H](CO[C@@H]5O[C@@H](C)[C@H](O)[C@@H](O)[C@H]5O)[C@@H](O)[C@H](O)[C@H]4O)C(C)(C)[C@@H]3CC[C@]12C` [progynosapogenin A2, 20S-Protopanaxadiol-3-O-[α-L-rhamnopyranosyl (1→6)-β-D-glucopyranoside]-20-O-[β-D-glucopyranosyl (1→6)-β-D-glucopyranoside]] was run?
Answer: The inhibition at 20 µg/mL was 8%.

Question: What about the “Free fatty acid formed” value (fat cells [1]) of the same compound?
Answer: The value was 13.0 μ Eq/g.

Question: And the “Power for synthesis” value (fat cells [2])?
Answer: Its value is 12,650 cpm/g.

Question: And the activation at 20 µg/mL (fat cells [2])?
Answer: The activation at 20 µg/mL was 59%.

Question: And the “Free fatty acid formed” value (fat cells [3])?
Answer: The value was 6.2 μ Eq/g.

Question: And the inhibition at 20 µg/mL (fat cells [3])?
Answer: The inhibition at 20 µg/mL was 26%.

Question: What does the source list for `CC(=CCC[C@](C)(O[C@@H]1O[C@H](CO)[C@@H](O)[C@H](O)[C@H]1O)[C@H]1CC[C@]2(C)[C@@H]1[C@H](O)C[C@@H]1[C@@]3(C)CC[C@H](O)C(C)(C)[C@@H]3CC[C@]12C)CO` [progynosapogenin O1, 20S,26-Hydroxyprotopanaxadiol-20-O-β-D-glucopyranoside]?
Answer: inhibition at 20 µg/mL (fat cells [1]): 11%; Free fatty acid formed by decomposition of fat (fat cells [1]): 12.6 μ Eq/g; Power for synthesis of neutral fat from glucose (fat cells [2]): 11,200 cpm/g; activation at 20 µg/mL (fat cells [2]): 52%; Free fatty acid formed by decomposition of fat (fat cells [3]): 5.9 μ Eq/g; inhibition at 20 µg/mL (fat cells [3]): 30%

— patent publication US4339442A, “Gynosaponins, their use and a process for preparing the same” (priority 1980, dated 1982)
